Assay [1] concerns prostaglandin receptors other than DP. Kind of assay: Actions at other prostaglandin receptors (selectivity). As to conditions: actions not observed up to this multiple.
The test system of a further assay is rabbit jugular vein. Kind of assay: Rabbit jugular vein relaxation: antagonism of PGD₂ and compound A. As to conditions: potency compared with the antagonism in platelet aggregation. As for the experimental part: Vascular smooth muscle relaxation in response to PGD₂ and compound A was measured as changes in isometric force. Isolated ring segments of rabbit jugular vein suspended in Kreb's buffer, gassed with 95% O₂/5% CO₂ and maintained at 37°C, were treated with: indomethacin, 1 µg ml⁻¹, and the stable thromboxane receptor antagonist BM13177 (Patscheke et al, Biomed. Biochem. Acta (1984) 43, 5321), 30µM. The experiments followed a paired curve design.
Initially, the jugular vein ring segments were subjected to a force of 0.75g, then allowed to stabilize for a period of 60 minutes during which time the preparations were washed three times. Subsequently histamine (10⁻⁶M) was added to produce tone. After establishing a stable contraction, relaxation/concentration effect curves were obtained using prostaglandin receptor agonists. Responses were expressed as per cent relaxations of the histamine-induced force. The preparations were then washed thoroughly and allowed to re-stabilise. The antagonists were then incubated for 60 minutes prior to constriction with histamine (10⁻⁶M), followed by a second determination of the prostaglandin agonist concentration effect curve.
(§1) Measurement of antagonist affinity (pKB) was by Schild analysis.

In assay [2] the target is T1, PGD₂ receptor on the human platelet (Homo sapiens, UniProt Q13258).
T1 construct: endogenous in cells; host or cells: washed human platelets
T1 sequence (Q13258 1-359): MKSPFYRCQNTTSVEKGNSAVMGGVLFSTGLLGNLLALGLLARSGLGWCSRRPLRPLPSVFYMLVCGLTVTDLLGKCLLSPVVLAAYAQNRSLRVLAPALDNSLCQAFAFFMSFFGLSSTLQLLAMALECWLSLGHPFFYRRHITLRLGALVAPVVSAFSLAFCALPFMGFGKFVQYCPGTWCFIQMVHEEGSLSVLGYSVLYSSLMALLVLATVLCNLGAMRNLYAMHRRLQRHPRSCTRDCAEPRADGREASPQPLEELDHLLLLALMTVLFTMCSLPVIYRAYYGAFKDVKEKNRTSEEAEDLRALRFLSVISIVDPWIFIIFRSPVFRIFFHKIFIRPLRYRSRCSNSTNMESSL
Kind of assay: Inhibition of ADP-induced aggregation in washed human platelets: antagonism of PGD₂ and compound A, Schild analysis. It counts as cell-based. As for the experimental part:
Washed platelet suspensions were prepared according to a modified version of the method of Vargas et al (Prostaglandins (1982) 23, 929). The suspension was then stored at 4°C for 2 hours and, before use, the following additions were made: Ca⁺⁺ʼ […], indomethacin, 5mcg ml⁻¹; and fibrinogen, 400 mcg ml⁻¹. Aggregation responses were measured using 0.5ml aliquots of the suspension maintained at 37°C and stirred with a metal bar at 900 r.p.m. in 300 BD-S Payton dual channel aggregometers and recorded on Gould BS 272 pen recorders.
Inhibition of platelet aggregation by PGD₂ and compound A were studied as follows. The prostaglandin receptor agonists were incubated in the platelet suspension for 6 minutes prior to adding ADP (5 × 10⁻⁵M). The reproducibility of the ADP-induced aggregation response was checked at intervals throughout the experiment. Antagonists were added 2 minutes before the agonist. Responses were expressed as percent inhibitions of the standard ADP-induced aggregation.
as §1

Turning to `O=C(O)CCCCCCC1C(=O)N(Cc2ccccc2)C(=O)N1NCC(O)C1CCCCC1` (centres unmarked) [Example 3, 3-Benzyl-5-(6-carboxylhexyl)-1-(2-hydroxy-2-cyclohexylethylamino) hydantoin], the “concentrations without actions at prostaglandin receptors other than DP, relative to that required for DP receptor affinity” value in assay [1] is reported as above 1000 ×. Further, in the assay on rabbit jugular vein, the “antagonism of the relaxation effects of PGD₂ and compound A” value was “antagonised with similar potencies”. The Kb in assay [2] (antagonist affinity by Schild analysis, shifts of anti-aggregatory concentration effect curves for PGD₂ and compound A, human washed platelets) was 0.55 nM. In assay [2] (anti-aggregatory concentration effect curves for PGD₂ and compound A, human washed platelets), the Schild plot slope result is “unity”. In assay [2] (human washed platelet assay, agonists PGD₂ and compound A), the “behaviour at the PGD₂ receptor on the human platelet” value is listed as “simple competitive antagonist”.

As usually defined, the Kb is the affinity of an antagonist, worked out from how it opposes an agonist.

The record behind these values is patent EP0284202A1, “Substituted hydantoin compounds” (THE WELLCOME FOUNDATION LIMITED, priority 1987, dated 1988).
